{
  "source": "patent US20250302833A1",
  "about": "“PHARMACEUTICAL COMPOSITION FOR TREATING OR PREVENTING CYSTIC DISEASE” (CHUGAI SEIYAKU KABUSHIKI KAISHA, priority 2022, published 2025)",
  "key": {"human NaPi-IIb": {"target": "T1, human NaPi-IIb (Homo sapiens, UniProt O95436)", "T1 construct": "expressed in transfected cells; host or cells: CHO cells, transient transfection with Fugene HD", "T1 sequence (O95436 1-690)": "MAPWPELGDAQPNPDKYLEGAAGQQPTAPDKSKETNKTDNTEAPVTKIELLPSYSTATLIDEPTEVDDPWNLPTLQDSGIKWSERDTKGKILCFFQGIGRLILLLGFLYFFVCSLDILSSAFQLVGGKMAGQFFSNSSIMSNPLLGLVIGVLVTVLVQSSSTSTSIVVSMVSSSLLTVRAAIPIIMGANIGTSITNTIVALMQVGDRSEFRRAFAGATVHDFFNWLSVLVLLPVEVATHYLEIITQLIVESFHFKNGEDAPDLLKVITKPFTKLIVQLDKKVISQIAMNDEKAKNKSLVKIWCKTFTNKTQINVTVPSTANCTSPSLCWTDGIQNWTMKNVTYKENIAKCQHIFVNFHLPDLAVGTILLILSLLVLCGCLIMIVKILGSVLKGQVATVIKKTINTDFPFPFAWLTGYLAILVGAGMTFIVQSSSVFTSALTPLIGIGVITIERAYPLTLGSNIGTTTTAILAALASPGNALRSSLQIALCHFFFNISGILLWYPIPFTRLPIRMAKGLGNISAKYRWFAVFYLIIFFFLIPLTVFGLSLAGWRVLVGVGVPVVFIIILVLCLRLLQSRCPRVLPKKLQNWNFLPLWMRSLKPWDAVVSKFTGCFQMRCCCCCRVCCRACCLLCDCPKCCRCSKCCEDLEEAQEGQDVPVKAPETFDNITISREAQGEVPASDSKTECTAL", "assay": "33PO4 uptake inhibition in CHO cells expressing human NaPi-IIb", "assay_type": "cell-based", "settings": "CHO cells transiently expressing human NaPi-IIb, pH 6.5", "description": "For transient expression, human NaPi-IIb expression plasmids, human PiT1 expression plasmids, human PiT2 expression plasmids, and Fugene HD Transfection (Promega Corporation) were added to CHO cells using a 96-well plate, and the plate was incubated in a C02 incubator for 16 hours. The medium was replaced with buffer A (145 mM choline chloride, 3 mM KCl, 1 mM CaCl2), 0.5 mM MgCl2, 5 mM glucose, 5 mM MES, (pH 6.5)), and then replaced with buffer B (145 mM NaCl, 3 mM KCl, 1 mM CaCl2, 0.5 mM MgCl2, 5 mM glucose, 5 mM MES (pH 6.5)) to which a test compound was added at the final concentration of 0.01, 0.03, 0.1, 0.3, 1, 3, 10, or 30 μM, buffer A to which DMSO was added, or buffer B to which DMSO was added. After a certain time, a 1/20 amount of buffer A containing ^33PO4 (PerkinElmer Japan G. K.) was added and reacted at room temperature. After washing with ice-cooled buffer A, a liquid scintillator (MicroScint™-20, item number 6013621, PerkinElmer Japan G.K.) was added, and the ^33PO4 uptake amount was measured with the top count (Top Count NXT, PerkinElmer Japan G.K.). The inhibition rate was determined by the following formula. Here, a certain time was set to 10 minutes. The phrase “a 1/20 amount of buffer A containing ^33PO4 (PerkinElmer Japan G.K.) was added” refers to “buffer A containing ^33PO4 (PerkinElmer Japan G.K.) was added in an amount of 1/20 of the amount of solution filling the medium”.\nThe 50% ^33PO4-uptake inhibition concentrations (ICs) (UM) in a cell expressing human NaPi-Ilb, human PiT1, and human PiT2 were calculated from a straight line through two points sandwiching 50% inhibition rate. It should be noted that compounds 1 and 2 were not measured for baman PiT1 and human PiT2, which was indicated as “-” in Table 1."}, "[1]": {"system": "pcy mice (naturally occurring PKD model)", "assay": "Suppression of increase in renal volume and decrease in renal function in pcy mice", "assay_type": "in vivo, mouse", "settings": "compared to tolvaptan", "description": "The pcy mice, a naturally occurring PKD model, were used to evaluate the effects of tolvaptan and compound 4 in Test Example 1 on (a) renal volume, (b) blood urea nitrogen (UN) concentration, (c) body weight, and (d) urine volume in pcy mice.\nThe pcy mice (5 weeks of age at the start of this test) were grouped into 3 groups of 13 mice each. Compound 4 or tolvaptan was administered to each of the test compound administration groups. The administration period was 5 weeks. Compound 4 was administered subcutaneously once daily and tolvaptan was administered subcutaneously at a weekly pace. Compound 4 was administered at 33-40 mg/kg per dose and tolvaptan was administered at 25-30 mg/kg per dose. Compound 4 and tolvaptan were administered after dissolved in 50% DMSO/50% glycerol. A group of mice of the parental line was provided as a normal control group (Normal Control) (N=7). The 50% DMSO/50% glycerol was administered to the normal control group and the Vehicle group of pcy mice at 1 mL/kg.\nThe left renal volume (renal volume (mL)) of mice was calculated by the following formula using echography 5 weeks after the start of administration of the test compound, as shown in FIG. 3a.\nAfter that, blood was collected from the abdominal vena cava, plasma was collected, and euthanasia treatment was performed. Blood urea nitrogen (UN) concentration (Plasma UN (mg/L)) was measured using L-type Waco UN (Fujifilm Wako Pure Chemical Corporation), as shown in FIG. 3b.\nIn addition, the body weight (Body weight (g)) of mice was measured every 7 days after the start of administration of the test compound, as shown in FIG. 3c. Furthermore, the volume of urine (Urine volume (mL/day)) was calculated from the specific gravity and measured weight of urine 5 weeks after the start of administration of the test compound, as shown in FIG. 3d."}},
  "data": [
    {"smiles": "CCCN([C@H]1CC[C@H](C(=O)[O-])CC1)S(=O)(=O)c1cccc(C(=O)Nc2sc3c(c2C(=O)Nc2ccc(CCCc4ccc(C(=O)[O-])cc4)cc2)CCCC3)c1.[Na+].[Na+]", "note": "[Compound 4, Disodium; 4-[3-[4-[[2-[[3-[(4-carboxylatocyclohexyl)-propylsulfamoyl]benzoyl]ami-no]-4,5,6,7-tetrahydro-1-benzothiophene-3-carbonyl]amino]phenyl]pro-pyl]benzoic acid]", "values": [
      {"measurement": "IC50", "setting": "human NaPi-IIb", "result": 31, "unit": "nM"},
      {"measurement": "Body weight (weight loss)", "setting": "[1]; 5 weeks administration", "result": "less weight loss"},
      {"measurement": "Urine volume", "setting": "[1]; 5 weeks after start of administration", "result": "no increase in urine volume"},
      {"measurement": "Suppression effect on increase in renal volume", "setting": "[1]; 33-40 mg/kg s.c. once daily, 5 weeks, left renal volume by echography", "result": "same degree of suppression effects"},
      {"measurement": "Suppression effect on decrease in renal function (blood urea nitrogen)", "setting": "[1]; 33-40 mg/kg s.c. once daily, 5 weeks, plasma UN", "result": "same degree of suppression effects"}
    ]}
  ]
}
